# Assay results taken from patent US9969977B2, “Cell populations which co-express CD49c and CD90” (GARNET BIOTHERAPEUTICS, priority 2002, dated 2018).
# System: cells which co-expressed CD49c and CD90
# Assay: qPCR of Sox-2 and Musashi transcripts with and without nifedipine treatment
# Assay type: cell-based, human
# Details: 5 μM nifedipine
# Protocol: The expression of transcripts for Sox-2 and Musashi were determined using quantitative polymerase chain reaction (qPCR). Briefly, Master Cell Bank of CFUs were derived from a bone marrow aspirate and stored as frozen aliquots using the method of Example 1. An aliquot was thawed and the cells were seeded in 96 well plates at 2000 cells/well in complete media and incubated at 37° C. in an atmosphere consisting of 5% carbon dioxide, 5% oxygen and 90% nitrogen for 3 days. On the third day of culture, cells were treated with 5 μM nifedipine (an L-type calcium channel blocker). After 24 hours of treatment, RNA was isolated using the QIAGEN®RNeasy reagents and the Qiagen Biorobot 3000. An aliquot of the eluted RNA was used to synthesize cDNA. Specifically, RNA was mixed with Promega MMLV, dNTPS, decamers and RNasin and incubated at 37° C. for 1 hour, followed by heat inactivation.
# For quantitative PCR, cDNA samples were combined with Applied Biosystems SYBR Green PCR Core reagents and amplicon specific primers, as described below, in a 384 well format. The 384 well plate was then transferred to the Applied Biosystems ABI Prism 7900 for qPCR analysis. The qPCR program entailed a 2 minute cycle at 50 degrees, followed by a 10 minute cycle at 95 degrees to activate the polymerase. This was then followed by 40 amplification cycles consisting of 15 seconds of melting at 95 degrees and one minute of extension/annealing at 60 degrees. Cycle threshold values were converted into relative transcript number using a standard curve then normalized using the corresponding 18s. Data are expressed as a ratio of transcript per 10^6 18s transcripts.
smiles,measurement,setting,value
COC(=O)C1=C(C)NC(C)=C(C(=O)OC)C1c1ccccc1[N+](=O)[O-] [nifedipine],Sox-2 expression in response to nifedipine,24 hours,28 transcripts/10^6 transcripts of 18S RNA
same,Musashi expression in response to nifedipine,24 hours of stimulation,0.093 transcripts/10^6 transcripts of 18S RNA
same,increase in Musashi expression,24 hours vs unstimulated,~17 fold
same,increase in Sox-2 expression,24 hours vs unstimulated,~7 fold
